Test results taken from patent publication US11384055B2 (BIOMARIN PHARMACEUTICAL INC., priority 2017, dated 2022).

Target: T1, Human GO (Homo sapiens, UniProt Q9UJM8)
T1 construct: purchased Novus Biologicals NBP1-72412
T1 sequence (Q9UJM8 1-370): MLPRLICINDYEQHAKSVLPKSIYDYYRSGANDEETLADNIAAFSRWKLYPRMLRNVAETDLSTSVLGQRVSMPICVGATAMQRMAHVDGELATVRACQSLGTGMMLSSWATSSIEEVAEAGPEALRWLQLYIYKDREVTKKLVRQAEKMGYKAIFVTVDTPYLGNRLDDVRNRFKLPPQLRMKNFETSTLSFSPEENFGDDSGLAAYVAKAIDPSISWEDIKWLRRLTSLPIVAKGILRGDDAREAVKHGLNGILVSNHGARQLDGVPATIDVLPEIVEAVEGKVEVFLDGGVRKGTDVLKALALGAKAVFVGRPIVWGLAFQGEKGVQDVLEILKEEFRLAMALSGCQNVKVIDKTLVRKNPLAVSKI
Assay: GO enzymatic assay (coupled fluorescence/HRP assay, glycolate substrate)
Type: biochemical
Details: not given
Method in brief: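 Coupled HRP/fluorescence read-out of glycolate oxidation by human GO in 50 mM potassium phosphate buffer (pH 7). Inhibitors added across a concentration range.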

IC50 [nM] | Structure (SMILES)
< 100 | O=C(O)c1[nH]nnc1Oc1ccc(C2CCCCC2)cc1 [Compound 273, 4-(4-cyclohexylphenoxy)-1H-1,2,3-triazole-5-carboxylic acid]

Same assay, conditions: Table 2; read-out: Range (range of IC50 values calculated from the enzymatic assays)

IC50 [nM] | Structure (SMILES)
< 100 | O=C(O)c1[nH]nnc1CSc1ccc(Cl)c(Cl)c1 [Compound 243, 4-(((3,4-dichlorophenyl)thio)methyl)-1H-1,2,3-triazole-5-carboxylic acid]
1000 to 10000 | CC(C)C(=O)OCOC(=O)c1[nH]nnc1Sc1ccc(-c2ccc(N3CCCCC3)cc2)cc1 [Compound 244, (isobutyryloxy)methyl 4-((4′-(piperidin-1-yl)-[1,1′-biphenyl]-4-yl)thio)-1H-1,2,3-triazole-5-carboxylate]
1000 to 10000 | CC(C)N1CCCc2ccc(Oc3nn[nH]c3C(=O)O)cc21 [Compound 245, 4-((1-isopropyl-1,2,3,4-tetrahydroquinolin-7-yl)oxy)-1H-1,2,3-triazole-5-carboxylic acid 2,2,2-trifluoroacetate]
100 to 1000 | CN1CCN(c2cccc(-c3ccc(Oc4nn[nH]c4C(=O)O)cc3)c2)CC1 [Compound 246, 4-((3′-(4-methylpiperazin-1-yl)-[1,1′-biphenyl]-4-yl)oxy)-1H-1,2,3-triazole-5-carboxylic acid 2,2,2-trifluoroacetate]
< 100 | O=C(O)c1[nH]nnc1Sc1ccc(-c2cccc(C3CCCCC3)c2)cc1 [Compound 247, 4-((3′-cyclohexyl-[1,1′-biphenyl]-4-yl)thio)-1H-1,2,3-triazole-5-carboxylic acid]
1000 to 10000 | O=C(OCOC(=O)c1[nH]nnc1Oc1ccc2cc(Cl)ccc2c1)c1ccccc1 [Compound 249, (benzoyloxy)methyl 4-((6-chloronaphthalen-2-yl)oxy)-1H-1,2,3-triazole-5-carboxylate]
< 100 | O=C(O)c1[nH]nnc1Oc1ccc(-c2ccc3cccnc3c2)cc1 [Compound 250, 4-(4-(quinolin-7-yl)phenoxy)-1H-1,2,3-triazole-5-carboxylic acid 2,2,2-trifluoroacetate]
1000 to 10000 | CC(C)(C)C(=O)OCOC(=O)c1[nH]nnc1Oc1ccc2cc(Cl)ccc2c1 [Compound 251, (pivaloyloxy)methyl 4-((6-chloronaphthalen-2-yl)oxy)-1H-1,2,3-triazole-5-carboxylate]
100 to 1000 | CC(C)C(=O)OCOC(=O)c1[nH]nnc1Oc1ccc2c(c1)CCCC2 [Compound 252, (isobutyryloxy)methyl 4-((5,6,7,8-tetrahydronaphthalen-2-yl)oxy)-1H-1,2,3-triazole-5-carboxylate]
< 100 | O=C(O)c1[nH]nnc1Oc1cccc(OC2CC2)c1 [Compound 253, 4-(3-cyclopropoxyphenoxy)-1H-1,2,3-triazole-5-carboxylic acid 2,2,2-trifluoroacetate]
< 100 | O=C(O)c1[nH]nnc1Oc1ccc(Cl)c(OC(F)(F)F)c1 [Compound 254, 4-(4-chloro-3-(trifluoromethoxy)phenoxy)-1H-1,2,3-triazole-5-carboxylic acid]
< 100 | CC(=O)NCCOc1ccc(-c2ccc(Oc3nn[nH]c3C(=O)O)cc2)cc1 [Compound 255, 4-((4′-(2-acetamidoethoxy)-[1,1′-biphenyl]-4-yl)oxy)-1H-1,2,3-triazole-5-carboxylic acid]
100 to 1000 | CC(C)C(=O)OCOC(=O)c1[nH]nnc1OC1CCc2cc(Cl)c(Cl)cc2C1 (centres unmarked) [Compound 256, (isobutyryloxy)methyl 4-((6,7-dichloro-1,2,3,4-tetrahydronaphthalen-2-yl)oxy)-1H-1,2,3-triazole-5-carboxylate]
< 100 | O=C(O)c1[nH]nnc1Oc1ccc(-c2ccc3cnccc3c2)cc1 [Compound 257, 4-(4-(isoquinolin-6-yl)phenoxy)-1H-1,2,3-triazole-5-carboxylic acid]
1000 to 10000 | CC(C)(C)C(=O)OCOC(=O)c1[nH]nnc1OC1CCc2cc(Cl)c(Cl)cc2C1 (centres unmarked) [Compound 258, (pivaloyloxy)methyl 4-((6,7-dichloro-1,2,3,4-tetrahydronaphthalen-2-yl)oxy)-1H-1,2,3-triazole-5-carboxylate]
< 100 | CC(=O)NCCOc1cccc(-c2ccc(Oc3nn[nH]c3C(=O)O)cc2)c1 [Compound 259, 4-((3′-(2-acetamidoethoxy)-[1,1′-biphenyl]-4-yl)oxy)-1H-1,2,3-triazole-5-carboxylic acid]
100 to 1000 | O=C(O)c1[nH]nnc1OC1CCN(c2ccc3cnccc3c2)CC1 [Compound 260, 4-((1-(isoquinolin-6-yl)piperidin-4-yl)oxy)-1H-1,2,3-triazole-5-carboxylic acid 2,2,2-trifluoroacetate]
1000 to 10000 | O=C(OCOC(=O)c1[nH]nnc1OC1CCc2cc(Cl)c(Cl)cc2C1)c1ccccc1 (centres unmarked) [Compound 261, (benzoyloxy)methyl 4-((6,7-dichloro-1,2,3,4-tetrahydronaphthalen-2-yl)oxy)-1H-1,2,3-triazole-5-carboxylate]
< 100 | O=C(O)c1[nH]nnc1Oc1cccc(OCC2CC2)c1 [Compound 262, 4-(3-(cyclopropylmethoxy)phenoxy)-1H-1,2,3-triazole-5-carboxylic acid 2,2,2-trifluoroacetate]

IC50 [nM] | Structure (SMILES)
< 100 | O=C(O)c1[nH]nnc1Oc1ccc(C2CCOCC2)cc1 [Compound 263, 4-(4-(tetrahydro-2H-pyran-4-yl)phenoxy)-1H-1,2,3-triazole-5-carboxylic acid 2,2,2-trifluoroacetate]
< 100 | O=C(O)c1[nH]nnc1COc1ccc(Cl)c(Cl)c1 [Compound 264, 4-((3,4-dichlorophenoxy)methyl)-1H-1,2,3-triazole-5-carboxylic acid 2,2,2-trifluoroacetate]
< 100 | O=C(O)c1[nH]nnc1COc1ccc(-c2ccc(OC(F)(F)F)cc2)cc1 [Compound 265, 4-(((4′-(trifluoromethoxy)-[1,1′-biphenyl]-4-yl)oxy)methyl)-1H-1,2,3-triazole-5-carboxylic acid]
< 100 | O=C(O)c1[nH]nnc1COc1ccc(-c2ccc(Cl)c(Cl)c2)cc1 [Compound 266, 4-(((3′,4′-dichloro-[1,1′-biphenyl]-4-yl)oxy)methyl)-1H-1,2,3-triazole-5-carboxylic acid 2,2,2-trifluoroacetate]
< 100 | CCC(=O)OCOC(=O)c1[nH]nnc1OC1CCc2cc(Cl)c(Cl)cc2C1 (centres unmarked) [Compound 267, (propionyloxy)methyl 4-((6,7-dichloro-1,2,3,4-tetrahydronaphthalen-2-yl)oxy)-1H-1,2,3-triazole-5-carboxylate]
< 100 | O=C(O)c1[nH]nnc1Oc1ccc(C2CC(F)(F)C2)cc1 [Compound 268, 4-(4-(3,3-difluorocyclobutyl)phenoxy)-1H-1,2,3-triazole-5-carboxylic acid]
< 100 | O=C(O)c1[nH]nnc1OCc1ccc(Cl)c(Cl)c1 [Compound 269, 4-((3,4-dichlorobenzyl)oxy)-1H-1,2,3-triazole-5-carboxylic acid]
< 100 | O=C(O)c1[nH]nnc1OC1CCN(c2ccc(Cl)cc2)CC1 [Compound 270, 4-((1-(4-chlorophenyl)piperidin-4-yl)oxy)-1H-1,2,3-triazole-5-carboxylic acid 2,2,2-trifluoroacetate]
< 100 | O=C(O)c1[nH]nnc1OC1Cc2cc(F)c(F)cc2C1 [Compound 271, 4-((5,6-difluoro-2,3-dihydro-1H-inden-2-yl)oxy)-1H-1,2,3-triazole-5-carboxylic acid]
< 100 | O=C(O)c1[nH]nnc1OCc1ccc(-c2ccc(OC(F)(F)F)cc2)cc1 [Compound 274, 4-((4′-(trifluoromethoxy)-[1,1′-biphenyl]-4-yl)methoxy)-1H-1,2,3-triazole-5-carboxylic acid]
< 100 | O=C(O)c1[nH]nnc1OC1CCC(c2ccc(OC(F)(F)F)cc2)C1 (centres unmarked) [Compound 275, 4-((3-(4-(trifluoromethoxy)phenyl)cyclopentyl)oxy)-1H-1,2,3-triazole-5-carboxylic acid]
< 100 | O=C(O)c1[nH]nnc1SC1CCc2cc(Cl)c(Cl)cc2C1 (centres unmarked) [Compound 277, 4-((6,7-dichloro-1,2,3,4-tetrahydronaphthalen-2-yl)thio)-1H-1,2,3-triazole-5-carboxylic acid]
1000 to 10000 | O=C(OCOC(=O)c1[nH]nnc1Sc1ccc(-c2ccc(N3CCCCC3)cc2)cc1)c1ccccc1 [Compound 278, (benzoyloxy)methyl 4-((4′-(piperidin-1-yl)-[1,1′-biphenyl]-4-yl)thio)-1H-1,2,3-triazole-5-carboxylate]
< 100 | O=C(O)c1[nH]nnc1Oc1ccc(C2CCC(F)(F)CC2)cc1 [Compound 279, 4-(4-(4,4-difluorocyclohexyl)phenoxy)-1H-1,2,3-triazole-5-carboxylic acid]
< 100 | O=C(O)c1[nH]nnc1OC1CCC2(CC1)CC2 [Compound 280, 4-(spiro[2.5]octan-6-yloxy)-1H-1,2,3-triazole-5-carboxylic acid 2,2,2-trifluoroacetate]
100 to 1000 | CC1(C)CCCc2cc(Oc3nn[nH]c3C(=O)O)ccc21 [Compound 281, 4-((5,5-dimethyl-5,6,7,8-tetrahydronaphthalen-2-yl)oxy)-1H-1,2,3-triazole-5-carboxylic acid]
< 100 | O=C(O)c1[nH]nnc1OC1Cc2ccc(OC(F)(F)F)cc2C1 (centres unmarked) [Compound 282, 4-((5-(trifluoromethoxy)-2,3-dihydro-1H-inden-2-yl)oxy)-1H-1,2,3-triazole-5-carboxylic acid]
< 100 | O=C(O)c1[nH]nnc1OC1CCC2(CCCCC2)CC1 [Compound 283, 4-(spiro[5.5]undecan-3-yloxy)-1H-1,2,3-triazole-5-carboxylic acid]
